This note sets out measurements from US9839642B2, “Beta-tetrazolyl-propionic acids as metallo-beta-lactamase inhibitors” (priority 2014, dated 2017).

One assay has as its target IMP-1 (Serratia marcescens, UniProt P52699). Description: Enzyme activity: determination of IC50, fluorescence assay with CCF2-FA substrate. In kind it is biochemical. The settings on record: IMP-1 enzyme 2 pM, CCF2-FA 1.25 μM, 2 hours at 25° C.; read-out: IMP1 IC50. In outline:
(§1)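 Final enzyme levels differed by target: 1 pM NDM-1, 2 pM IMP-1, 30 pM VIM-1. Each was incubated 2 hours at 25° C with test compound and 1.25 μM CCF2-FA, and 460 nm fluorescence (405 nm excitation) was fitted by 4-parameter curve to obtain IC50.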

For another assay, the target named is NDM-1 (Klebsiella pneumoniae, UniProt C7C422). The assay is described as above. The class given is biochemical. The settings on record: NDM-1 enzyme 1 pM, CCF2-FA 1.25 μM, 2 hours at 25° C.; read-out: NDM1 IC50. The procedure, abridged: as §1
The target of a further assay is VIM-1 (Pseudomonas aeruginosa, UniProt A0A0F7KYQ8). The description is as above. The class given is biochemical. The settings on record: VIM-1 enzyme 30 pM, CCF2-FA 1.25 μM, 2 hours at 25° C.; read-out: VIM1 IC50. In outline:
as §1

The subject of assay [1] is Escherichia coli expressing NDM-1 (CLB30016). Description: Antibiotic potentiation activity: synergistic concentration (MITC95) with imipenem, growth by OD600. The settings on record: E. coli CLB30016 (NDM-1), 95% inhibition of growth. In kind it is cell-based. The procedure, abridged: (§2)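 Colonies from overnight agar plates (35 °C) were suspended in saline and diluted 1:100 into 1.1× CAMHB. Inhibitor (final 200 μM to 0.195 μM) was combined with imipenem at 1 or 4 μg/ml, incubated 22–24 h at 35 °C, and absorbance read; MITC95 is the lowest inhibitor concentration giving 95% growth inhibition.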

Assay [2] relates to Klebsiella pneumoniae expressing VIM-1 (IHMA599644). Described as above. In kind it is cell-based. The settings on record: K. pneumoniae IHMA599644 (VIM-1), 95% inhibition of growth. In outline:
as §2

Assay [3] concerns Serratia marcescens expressing IMP-1 (CL5741). The description is as above. In kind it is cell-based. The settings on record: S. marcescens CL5741 (IMP-1), 95% inhibition of growth. In outline:
as §2

Sequence of NDM-1 (C7C422 29-270, looked up, species assumed): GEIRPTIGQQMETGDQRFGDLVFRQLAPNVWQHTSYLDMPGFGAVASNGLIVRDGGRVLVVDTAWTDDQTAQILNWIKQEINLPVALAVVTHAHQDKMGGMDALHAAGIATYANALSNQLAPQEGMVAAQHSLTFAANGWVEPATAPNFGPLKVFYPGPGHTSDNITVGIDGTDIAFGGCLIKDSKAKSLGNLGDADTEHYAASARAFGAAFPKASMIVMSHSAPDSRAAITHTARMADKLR
Sequence of IMP-1 (P52699 19-246, looked up, species assumed): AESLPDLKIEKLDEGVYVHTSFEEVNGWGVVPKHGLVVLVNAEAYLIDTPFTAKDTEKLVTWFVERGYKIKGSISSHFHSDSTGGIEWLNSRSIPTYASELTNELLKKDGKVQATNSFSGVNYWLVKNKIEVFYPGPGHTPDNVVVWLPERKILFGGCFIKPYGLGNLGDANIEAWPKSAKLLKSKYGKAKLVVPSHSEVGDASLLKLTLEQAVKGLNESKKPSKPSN

For `CCC[C@H](C(=O)[O-])[C@H](Cc1ccc(C2CCC[N+](C)(C)C2)nc1)c1nnn[nH]1` (stereo partly drawn) [Example 292, (2S)-2-((1S)-2-(6-(1,1-dimethylpiperidin-1-ium-3-yl)pyridin-3-yl)-1-(1H-tetrazol-5-yl)ethyl)pentanoate], the IC50 on IMP-1 came out at 16000 nM; on NDM-1, 2600 nM; at VIM-1 it was 78 nM. Also, the “NDM1 EC30016 MITC95” value in assay [1] was determined as 38 µM. Also, the “VIM1 KP599644 MITC95” value in assay [2] was found to be 50 µM. Further, the “IMP1 SM5741 MITC95” value in assay [3] amounted to 150 µM.

`CCC[C@H](C(=O)[O-])[C@H](Cc1ccc(C2=CCC[N+](C)(C)C2)nc1)c1nnn[nH]1` [Example 293, (S)-2-((S)-2-(1′,1′-dimethyl-1′,2′,5′,6′-tetrahydro-[2,3′-bipyridin]-1′-ium-5-yl)-1-(1H-tetrazol-5-yl)ethyl)pentanoate]: the values for the IC50 at IMP-1, on NDM-1 and on VIM-1 were 16000 nM, 2400 nM and 22 nM, respectively. In addition, in assay [1], the “NDM1 EC30016 MITC95” value worked out at 25 µM. Besides, the “VIM1 KP599644 MITC95” value in assay [2] worked out at 50 µM. Further, in assay [3], the “IMP1 SM5741 MITC95” value amounted to 100 µM.

For the compound `CCC[C@H](C(=O)[O-])[C@H](Cc1ccc(C2CC[N+](C)(C)CC2)cc1)c1nnn[nH]1` [Example 294, (S)-2-((S)-2-(4-(1,1-dimethylpiperidin-1-ium-4-yl)phenyl)-1-(1H-tetrazol-5-yl)ethyl)pentanoate], the results for the IC50 at IMP-1, on NDM-1 and on VIM-1 were 690 nM, 170 nM and 76 nM, respectively. Besides, the “NDM1 EC30016 MITC95” value in assay [1] turned out to be 12.5 µM. The “VIM1 KP599644 MITC95” value in assay [2] came to 25 µM. Besides, in assay [3], the “IMP1 SM5741 MITC95” value turned out to be 9.4 µM.

On to `CCC[C@H](C(=O)[O-])[C@H](Cc1ccc(C2=CC[N+](C)(C)CC2)cc1)c1nnn[nH]1` [Example 295, (S)-2-((S)-2-(4-(1,1-dimethyl-1,2,3,6-tetrahydropyridin-1-ium-4-yl)phenyl)-1-(1H-tetrazol-5-yl)ethyl)pentanoate], for which the IC50 at IMP-1 was 1100 nM; on NDM-1, 440 nM; at VIM-1, 1600 nM. Moreover, the “NDM1 EC30016 MITC95” value in assay [1] stood at 12.5 µM. In addition, the “VIM1 KP599644 MITC95” value in assay [2] came to 25 µM. In addition, the “IMP1 SM5741 MITC95” value in assay [3] came to 12.5 µM.

In the case of `CCC[C@H](C(=O)O)[C@H](Cc1ccc(C2CCN(C(=N)N)CC2)cc1)c1nnn[nH]1` [Example 296, (S)-2-((S)-2-(4-(1-carbamimidoylpiperidin-4-yl)phenyl)-1-(1H-tetrazol-5-yl)ethyl)pentanoic acid], the results for the IC50 on IMP-1, at NDM-1 and at VIM-1 were 180 nM, 32 nM and 21 nM, respectively. For the same compound, the “NDM1 EC30016 MITC95” value in assay [1] worked out at 4.7 µM. For the same compound, in assay [2], the “VIM1 KP599644 MITC95” value was determined as 12.5 µM. For the same compound, the “IMP1 SM5741 MITC95” value in assay [3] came out at 6.2 µM.

`CCC[C@H](C(=O)O)[C@H](Cc1ccc(C2CCN(C=N)CC2)cc1)c1nnn[nH]1` [Example 297, (S)-2-((S)-2-(4-(1-(iminomethyl)piperidin-4-yl)phenyl)-1-(1H-tetrazol-5-yl)ethyl)pentanoic acid]: the IC50 at IMP-1 came out at 200 nM; at NDM-1 it was 26 nM; on VIM-1, 25 nM. In addition, the “NDM1 EC30016 MITC95” value in assay [1] amounted to 4.7 µM. In addition, the “VIM1 KP599644 MITC95” value in assay [2] turned out to be 18.8 µM. Also, in assay [3], the “IMP1 SM5741 MITC95” value was found to be 6.2 µM.

For the compound `CCC[C@H](C(=O)O)[C@H](Cc1ccc(C2CCN(C(=N)N)CC2)nc1)c1nnn[nH]1` [Example 298, (S)-2-((S)-2-(6-(1-carbamimidoylpiperidin-4-yl)pyridin-3-yl)-1-(1H-tetrazol-5-yl)ethyl)pentanoic acid], the IC50 is 2700 nM at IMP-1, 110 nM on NDM-1 and 10 nM at VIM-1. The “NDM1 EC30016 MITC95” value in assay [1] worked out at 1.6 µM. Besides, in assay [2], the “VIM1 KP599644 MITC95” value came to 12.5 µM. Besides, in assay [3], the “IMP1 SM5741 MITC95” value worked out at 25 µM.

For `CCC[C@H](C(=O)O)[C@H](Cc1ccc(C2CCN(C=N)CC2)nc1)c1nnn[nH]1` [Example 299, (S)-2-((S)-2-(6-(1-(iminomethyl)piperidin-4-yl)pyridin-3-yl)-1-(1H-tetrazol-5-yl)ethyl)pentanoic acid], the IC50 stood at 4400 nM on IMP-1, 220 nM at NDM-1 and 22 nM at VIM-1. Moreover, the “NDM1 EC30016 MITC95” value in assay [1] is 1.6 µM. The “VIM1 KP599644 MITC95” value in assay [2] worked out at 25 µM. Besides, the “IMP1 SM5741 MITC95” value in assay [3] came out at 50 µM.

As to `CCC[C@H](C(=O)O)[C@H](Cc1ccc(C2CCN(C)CC2)cc1)c1nn[nH]n1` [Example 300, (2S)-2-[(1S)-2-[4-(1-methylpiperidin-4-yl)phenyl]-1-(2H-tetrazol-5-yl)ethyl]pentanoic acid], the IC50 on IMP-1 stood at 2100 nM; at NDM-1 it was 550 nM; at VIM-1, 140 nM. Further, the “NDM1 EC30016 MITC95” value in assay [1] was 50 µM. Moreover, the “VIM1 KP599644 MITC95” value in assay [2] was 100 µM. Further, in assay [3], the “IMP1 SM5741 MITC95” value is 25 µM.

For `CCC[C@H](C(=O)O)[C@H](Cc1ccc(-c2ccc(CC3CCNCC3)cc2)cc1)c1nn[nH]n1` [Example 301, (2S)-2-[(1S)-2-[4′-(piperidin-4-ylmethyl)biphenyl-4-yl]-1-(2H-tetrazol-5-yl)ethyl]pentanoic acid], the results for the half-inhibitory concentration (IC50) on IMP-1, at NDM-1 and on VIM-1 were 68 nM, 43 nM and 31 nM, respectively. The “NDM1 EC30016 MITC95” value in assay [1] is 12.5 µM. Also, the “VIM1 KP599644 MITC95” value in assay [2] is 100 µM. Besides, the “IMP1 SM5741 MITC95” value in assay [3] was 2.3 µM.

Regarding `CCC[C@H](C(=O)O)[C@H](Cc1ccc(C2=CCCNC2)cc1)c1nn[nH]n1` [Example 302, (2S)-2-[(1S)-2-[4-(1,2,5,6-tetrahydropyridin-3-yl)phenyl]-1-(2H-tetrazol-5-yl)ethyl]pentanoic acid], the IC50 at IMP-1 was determined as 3100 nM; on NDM-1, 980 nM; on VIM-1 it was 18 nM. Also, the “NDM1 EC30016 MITC95” value in assay [1] was 38 µM. In assay [2], the “VIM1 KP599644 MITC95” value came to 50 µM. Further, in assay [3], the “IMP1 SM5741 MITC95” value was found to be 50 µM.

Consider `CC(C)C[C@H](C(=O)O)[C@H](Cc1ccc(N2CCCC2c2ccccc2)nc1)c1nnn[nH]1` (stereo partly drawn) [Example 303, (2S)-4-methyl-2-[(1S)-2-[6-(2-phenylpyrrolidin-1-yl)pyridin-3-yl]-1-(1H-tetrazol-5-yl)ethyl]pentanoic acid], for which the IC50 came out at 96 nM on IMP-1, 14 nM at NDM-1 and 3.9 nM at VIM-1. The “NDM1 EC30016 MITC95” value in assay [1] came to 18.8 µM. For the same compound, the “VIM1 KP599644 MITC95” value in assay [2] worked out at 200 µM. In addition, the “IMP1 SM5741 MITC95” value in assay [3] was 4.7 µM.

`CC(C)C[C@H](C(=O)O)[C@H](Cc1ccc(N2CCCC2)nc1)c1nnn[nH]1` [Example 304, (2S)-4-methyl-2-[(1S)-2-(6-pyrrolidin-1-ylpyridin-3-yl)-1-(1H-tetrazol-5-yl)ethyl]pentanoic acid]: the IC50 is 1300 nM on IMP-1, 170 nM at NDM-1 and 7.8 nM at VIM-1. Moreover, in assay [1], the “NDM1 EC30016 MITC95” value stood at 4.7 µM. In addition, the “VIM1 KP599644 MITC95” value in assay [2] came out at 18.8 µM. In addition, the “IMP1 SM5741 MITC95” value in assay [3] worked out at 38 µM.

Regarding `CNC(=O)C1CCN(c2ccc(C[C@H](c3nnn[nH]3)[C@H](CC(C)C)C(=O)O)cn2)C1` (stereo partly drawn) [Example 305, (2S)-4-methyl-2-[(1S)-2-{6-[3-(methylcarbamoyl)pyrrolidin-1-yl]pyridin-3-yl}-1-(1H-tetrazol-5-yl)ethyl]pentanoic acid], the IC50 is 250 nM on IMP-1, 120 nM at NDM-1 and 12 nM on VIM-1. Besides, in assay [1], the “NDM1 EC30016 MITC95” value was determined as 2.3 µM. In addition, the “VIM1 KP599644 MITC95” value in assay [2] is 25 µM. In addition, in assay [3], the “IMP1 SM5741 MITC95” value is 6.2 µM.

As for `CC(C)C[C@H](C(=O)O)[C@H](Cc1ccc(N2CCC(CN)C2)nc1)c1nnn[nH]1` (stereo partly drawn) [Example 306, (2S)-2-[(1S)-2-{6-[3-(aminomethyl)pyrrolidin-1-yl]pyridin-3-yl}-1-(1H-tetrazol-5-yl)ethyl]-4-methylpentanoic acid], the results for the IC50 at IMP-1, at NDM-1 and on VIM-1 were 2700 nM, 670 nM and 13 nM, respectively. Also, the “NDM1 EC30016 MITC95” value in assay [1] was found to be 3.1 µM. Moreover, in assay [2], the “VIM1 KP599644 MITC95” value turned out to be 12.5 µM. Moreover, the “IMP1 SM5741 MITC95” value in assay [3] was 25 µM.

`CC(C)C[C@H](C(=O)O)[C@H](Cc1ccc(N2CCC(CN)CC2)nc1)c1nnn[nH]1` [Example 307, (2S)-2-[(1S)-2-{6-[4-(aminomethyl)piperidin-1-yl]pyridin-3-yl}-1-(1H-tetrazol-5-yl)ethyl]-4-methylpentanoic acid]: the IC50 at IMP-1 worked out at 390 nM; at NDM-1 it was 120 nM; at VIM-1, 24 nM. In assay [1], the “NDM1 EC30016 MITC95” value is 4.7 µM. Also, the “VIM1 KP599644 MITC95” value in assay [2] turned out to be 25 µM. In addition, the “IMP1 SM5741 MITC95” value in assay [3] was determined as 6.2 µM.
